These results are taken from US8637499B2, “Benzoxazepines as inhibitors of PI3K/mTOR and methods of their use and manufacture” (Exelixis, Inc., priority 2009, dated 2014).

Structures are written as SMILES.

Test [1] addresses mTORC1 (mTOR/GbL/Raptor) (Homo sapiens, UniProt P42345). Description: mTOR/GbL/Raptor (mTORC1) ELISA Assay. The test is classed as biochemical. As to conditions: 0.2 nM mTORC1, 10 μM ATP, 50 nM NHis-tagged 4E-BP1; phosphorylation of 4E-BP1; read-out: IC50. The method in brief:
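Detection used Ni-chelate capture of His-tagged 4E-BP1, then anti-phospho-4E-BP1 and HRP anti-IgG with luminescent ELISA substrate. Reactions ran 120 min at ambient temperature with 0.2 nM mTORC1, 10 μM ATP, 50 nM 4E-BP1, 10 mM MnCl2, pH 7.2 Hepes.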

For test [2], the target named is PI3Kα (Homo sapiens, UniProt P42336). As to the kind of experiment: PI3K Biochemical Assays (ATP consumption, luciferase-luciferin chemiluminescence). Particulars: PI3Kα 1.5 nM, ATP 1 μM, PIP2 10 μM; percent of ATP consumed. The method in brief:
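Enzyme (1.5 nM), PIP2 substrate (10 μM) and ATP (1 μM) react about 2 h at room temperature in Tris buffer pH 7.5 with MgCl2, EGTA, DTT and CHAPS. Remaining ATP detected by Kinase-Glo luminescence; total consumption limited to 40-60%.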

PI3Kα, sequence (P42336 whole entry): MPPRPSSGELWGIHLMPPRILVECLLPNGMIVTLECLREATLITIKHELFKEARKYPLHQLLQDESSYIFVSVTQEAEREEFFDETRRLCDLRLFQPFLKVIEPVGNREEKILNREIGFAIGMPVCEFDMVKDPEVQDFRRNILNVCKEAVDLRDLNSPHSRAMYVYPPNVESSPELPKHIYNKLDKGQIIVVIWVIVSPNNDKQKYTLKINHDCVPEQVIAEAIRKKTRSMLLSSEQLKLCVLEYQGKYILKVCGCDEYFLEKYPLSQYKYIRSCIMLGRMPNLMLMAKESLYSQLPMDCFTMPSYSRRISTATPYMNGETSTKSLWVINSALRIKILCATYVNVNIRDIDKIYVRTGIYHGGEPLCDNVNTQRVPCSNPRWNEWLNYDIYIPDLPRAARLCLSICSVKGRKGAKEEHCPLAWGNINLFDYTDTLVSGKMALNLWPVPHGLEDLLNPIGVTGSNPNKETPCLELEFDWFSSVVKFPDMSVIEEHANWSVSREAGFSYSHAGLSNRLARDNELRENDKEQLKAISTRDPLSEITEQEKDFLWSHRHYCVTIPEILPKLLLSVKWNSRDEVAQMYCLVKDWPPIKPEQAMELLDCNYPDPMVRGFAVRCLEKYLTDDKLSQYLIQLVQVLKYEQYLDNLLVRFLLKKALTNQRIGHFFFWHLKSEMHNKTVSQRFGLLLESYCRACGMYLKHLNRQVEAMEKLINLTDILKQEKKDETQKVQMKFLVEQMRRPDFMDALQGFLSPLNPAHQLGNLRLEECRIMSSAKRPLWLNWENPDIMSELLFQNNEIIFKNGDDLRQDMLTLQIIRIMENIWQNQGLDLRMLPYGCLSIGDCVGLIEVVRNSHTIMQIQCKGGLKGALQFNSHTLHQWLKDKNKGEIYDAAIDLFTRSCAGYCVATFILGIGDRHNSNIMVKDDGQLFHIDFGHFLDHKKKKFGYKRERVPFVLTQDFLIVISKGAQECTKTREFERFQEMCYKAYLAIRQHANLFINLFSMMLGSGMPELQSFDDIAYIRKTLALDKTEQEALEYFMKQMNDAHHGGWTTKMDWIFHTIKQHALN
PI3Kα, sequence (P27986 whole entry partner): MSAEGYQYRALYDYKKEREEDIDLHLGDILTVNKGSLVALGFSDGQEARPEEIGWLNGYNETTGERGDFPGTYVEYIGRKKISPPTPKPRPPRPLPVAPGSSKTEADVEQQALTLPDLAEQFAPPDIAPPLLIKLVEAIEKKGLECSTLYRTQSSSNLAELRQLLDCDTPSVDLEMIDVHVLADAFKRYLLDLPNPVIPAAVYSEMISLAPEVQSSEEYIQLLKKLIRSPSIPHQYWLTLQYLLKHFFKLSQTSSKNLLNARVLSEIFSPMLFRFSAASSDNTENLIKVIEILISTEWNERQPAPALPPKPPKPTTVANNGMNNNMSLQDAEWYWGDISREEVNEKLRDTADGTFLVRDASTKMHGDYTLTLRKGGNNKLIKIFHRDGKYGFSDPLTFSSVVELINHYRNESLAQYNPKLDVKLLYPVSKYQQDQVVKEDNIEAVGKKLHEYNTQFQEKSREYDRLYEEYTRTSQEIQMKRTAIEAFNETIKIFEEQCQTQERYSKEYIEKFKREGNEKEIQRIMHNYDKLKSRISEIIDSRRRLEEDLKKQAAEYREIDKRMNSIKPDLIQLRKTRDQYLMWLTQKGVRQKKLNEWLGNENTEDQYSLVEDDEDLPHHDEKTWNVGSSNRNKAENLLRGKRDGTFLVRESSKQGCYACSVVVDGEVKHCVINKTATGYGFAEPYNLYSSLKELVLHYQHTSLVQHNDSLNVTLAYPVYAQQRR

With `Nc1nc2ccc(-c3ccc4c(c3)CN(C(=O)N3CCC(=O)CC3c3cccc(F)c3)CCO4)cc2[nH]1` (stereo not drawn) [Compound 28, 1-{[7-(2-amino-1H-benzimidazol-6-yl)-2,3-dihydro-1,4-benzoxazepin-4(5H)-yl]carbonyl}-2-(3-fluorophenyl)piperidin-4-one], the concentration for half-maximal inhibition (IC50) in test [1] is not above 50 nM; in test [2] it was 75 to 200 nM.
The matching figures for `CCNc1nc2ccc(-c3ccc4c(c3)CN(C(=O)N3CCC(CF)CC3)CCO4)cc2[nH]1` [Compound 29, N-ethyl-6-(4-{[4-(fluoromethyl)piperidin-1-yl]carbonyl}-2,3,4,5-tetrahydro-1,4-benzoxazepin-7-yl)-1H-benzimidazol-2-amine]: not above 50 nM and 75 to 200 nM.
As for `CCNc1nc2ccc(-c3ccc4c(c3)CN(C(=O)N3CCC(=O)CC3c3cccc(F)c3)CCO4)cc2[nH]1` (stereo not drawn) [Compound 30, 1-({7-[2-(ethylamino)-1H-benzimidazol-6-yl]-2,3-dihydro-1,4-benzoxazepin-4(5H)-yl}carbonyl)-2-(3-fluorophenyl)piperidin-4-one], the half-inhibitory concentration (IC50) in test [1] was not above 50 nM; in test [2], not above 75 nM.
The matching figures for `O=C1CCN(C(=O)N2CCOc3ccc(-c4ccc5[nH]c(NCC(F)(F)F)nc5c4)cc3C2)C(c2cccc(F)c2)C1` (stereo not drawn) [Compound 31, 2-(3-fluorophenyl)-1-{[7-{2-[(2,2,2-trifluoroethyl)amino]-1H-benzimidazol-5-yl}-2,3-dihydro-1,4-benzoxazepin-4(5H)-yl]carbonyl}piperidin-4-one]: not above 50 nM and 200 to 500 nM.
In the same order, the values of `O=C1CCN(C(=O)N2CCOc3ccc(-c4ccc5[nH]c(NCCF)nc5c4)cc3C2)C(c2cccc(F)c2)C1` (stereo not drawn) [Compound 32, 1-{[7-{2-[(2-fluoroethyl)amino]-1H-benzimidazol-5-yl}-2,3-dihydro-1,4-benzoxazepin-4(5H)-yl]carbonyl}-2-(3-fluorophenyl)piperidin-4-one] are not above 50 nM and not above 75 nM.
The matching figures for `CCNc1nc2ccc(-c3ccc4c(c3)CN(C(=O)N3CCC(C(C)(F)F)CC3)CCO4)cc2[nH]1` [Compound 33, 6-(4-{[4-(1,1-difluoroethyl)piperidin-1-yl]carbonyl}-2,3,4,5-tetrahydro-1,4-benzoxazepin-7-yl)-N-ethyl-1H-benzimidazol-2-amine]: not above 50 nM and 200 to 500 nM.
In the case of `COC(=O)Nc1nc2ncc(-c3ccc4c(c3)CN(C(=O)N3CCC(C(C)(F)F)CC3)CCO4)cc2[nH]1` [Compound 34, methyl [6-(4-{[4-(1,1-difluoroethyl)piperidin-1-yl]carbonyl}-2,3,4,5-tetrahydro-1,4-benzoxazepin-7-yl)-1H-imidazo[4,5-b]pyridin-2-yl]carbamate], the half-inhibitory concentration (IC50) in test [1] was not above 50 nM; in test [2], not above 75 nM.
In the same order, the values of `COC(=O)Nc1nc2ncc(-c3ccc4c(c3)CN(C(=O)N3CCC(CCF)CC3)CCO4)cc2[nH]1` [Compound 35, methyl [6-(4-{[4-(2-fluoroethyl)piperidin-1-yl]carbonyl}-2,3,4,5-tetrahydro-1,4-benzoxazepin-7-yl)-1H-imidazo[4,5-b]pyridin-2-yl]carbamate] are not above 50 nM and not above 75 nM.
The matching figures for `COC(=O)Nc1nc2ncc(-c3ccc4c(c3)CN(C(=O)N3CCC(CF)CC3)CCO4)cc2[nH]1` [Compound 36, methyl [6-(4-{[4-(fluoromethyl)piperidin-1-yl]carbonyl}-2,3,4,5-tetrahydro-1,4-benzoxazepin-7-yl)-1H-imidazo[4,5-b]pyridin-2-yl]carbamate]: not above 50 nM and not above 75 nM.
The matching figures for `COC(=O)Nc1nc2ncc(-c3ccc4c(c3)CN(C(=O)N3CCC(=O)CC3c3ccc(F)cc3)CCO4)cc2[nH]1` (stereo not drawn) [Compound 37, methyl [6-(4-{[2-(4-fluorophenyl)-4-oxopiperidin-1-yl]carbonyl}-2,3,4,5-tetrahydro-1,4-benzoxazepin-7-yl)-1H-imidazo[4,5-b]pyridin-2-yl]carbamate]: 50 to 250 nM and not above 75 nM.
For `COC(=O)Nc1nc2ncc(-c3ccc4c(c3)CN(C(=O)N3CCC(O)(CF)CC3)CCO4)cc2[nH]1` [Compound 38, methyl [6-(4-{[4-(fluoromethyl)-4-hydroxypiperidin-1-yl]carbonyl}-2,3,4,5-tetrahydro-1,4-benzoxazepin-7-yl)-1H-imidazo[4,5-b]pyridin-2-yl]carbamate], the IC50 in test [1] was in the range of 50 to 250 nM; in test [2], 75 to 200 nM.
With `COC(=O)Nc1nc2ncc(-c3ccc4c(c3)CN(C(=O)N3CCC(=O)CC3c3ccc(F)c(F)c3)CCO4)cc2[nH]1` (stereo not drawn) [Compound 39, methyl [6-(4-{[2-(3,4-difluorophenyl)-4-oxopiperidin-1-yl]carbonyl}-2,3,4,5-tetrahydro-1,4-benzoxazepin-7-yl)-1H-imidazo[4,5-b]pyridin-2-yl]carbamate], the IC50 in test [1] was 50 to 250 nM; in test [2], not above 75 nM.
In the same order, the values of `COC(=O)Nc1nc2ncc(-c3ccc4c(c3)CN(C(=O)N3CCC(C#N)CC3)CCO4)cc2[nH]1` [Compound 40, methyl (6-{4-[(4-cyanopiperidin-1-yl)carbonyl]-2,3,4,5-tetrahydro-1,4-benzoxazepin-7-yl}-1H-imidazo[4,5-b]pyridin-2-yl)carbamate] are 50 to 250 nM and 200 to 500 nM.
The matching figures for `COC(=O)Nc1nc2ncc(-c3ccc4c(c3)CN(C(=O)N3CCC(C)CC3)CCO4)cc2[nH]1` [Compound 41, methyl (6-{4-[(4-methylpiperidin-1-yl)carbonyl]-2,3,4,5-tetrahydro-1,4-benzoxazepin-7-yl}-1H-imidazo[4,5-b]pyridin-2-yl)carbamate]: not above 50 nM and not above 75 nM.
The matching figures for `CC(F)(F)C1CCN(C(=O)N2CCOc3ccc(-c4cnc5nc(N)[nH]c5c4)cc3C2)CC1` [Compound 42, 6-(4-{[4-(1,1-difluoroethyl)piperidin-1-yl]carbonyl}-2,3,4,5-tetrahydro-1,4-benzoxazepin-7-yl)-1H-imidazo[4,5-b]pyridin-2-amine]: not above 50 nM and not above 75 nM.
As for `Nc1nc2ncc(-c3ccc4c(c3)CN(C(=O)N3CCC(C(F)F)CC3)CCO4)cc2[nH]1` [Compound 43, 6-(4-{[4-(difluoromethyl)piperidin-1-yl]carbonyl}-2,3,4,5-tetrahydro-1,4-benzoxazepin-7-yl)-1H-imidazo[4,5-b]pyridin-2-amine], the IC50 was not above 50 nM in test [1] and 75 to 200 nM in test [2].
As for `Nc1nc2ncc(-c3ccc4c(c3)CN(C(=O)N3CCC(CCF)CC3)CCO4)cc2[nH]1` [Compound 44, 6-(4-{[4-(2-fluoroethyl)piperidin-1-yl]carbonyl}-2,3,4,5-tetrahydro-1,4-benzoxazepin-7-yl)-1H-imidazo[4,5-b]pyridin-2-amine], the values for the IC50 in test [1] and in test [2] were not above 50 nM and not above 75 nM, respectively.
The matching figures for `Nc1nc2ncc(-c3ccc4c(c3)CN(C(=O)N3CCC(CF)CC3)CCO4)cc2[nH]1` [Compound 45, 6-(4-{[4-(fluoromethyl)piperidin-1-yl]carbonyl}-2,3,4,5-tetrahydro-1,4-benzoxazepin-7-yl)-1H-imidazo[4,5-b]pyridin-2-amine]: not above 50 nM and not above 75 nM.
The matching figures for `N#CC1CCN(C(=O)N2CCOc3ccc(-c4cnc5nc(N)[nH]c5c4)cc3C2)CC1` [Compound 46, 1-{[7-(2-amino-1H-imidazo[4,5-b]pyridin-6-yl)-2,3-dihydro-1,4-benzoxazepin-4(5H)-yl]carbonyl}piperidine-4-carbonitrile]: not above 50 nM and not above 75 nM.
The matching figures for `NC(=O)C1CCN(C(=O)N2CCOc3ccc(-c4cnc5nc(N)[nH]c5c4)cc3C2)CC1` [Compound 47, 1-{[7-(2-amino-1H-imidazo[4,5-b]pyridin-6-yl)-2,3-dihydro-1,4-benzoxazepin-4(5H)-yl]carbonyl}piperidine-4-carboxamide]: not above 50 nM and not above 75 nM.
Turning to `Nc1nc2ncc(-c3ccc4c(c3)CN(C(=O)N3CCC(=O)CC3c3cccc(F)c3)CCO4)cc2[nH]1` (stereo not drawn) [Compound 48, 1-{[7-(2-amino-1H-imidazo[4,5-b]pyridin-6-yl)-2,3-dihydro-1,4-benzoxazepin-4(5H)-yl]carbonyl}-2-(3-fluorophenyl)piperidin-4-one], the IC50 in test [1] is not above 50 nM; in test [2] it was not above 75 nM.
The matching figures for `Nc1nc2ncc(-c3ccc4c(c3)CN(C(=O)N3[C@@H]5CC[C@H]3C[C@](O)(C(F)(F)F)C5)CCO4)cc2[nH]1` [Compound 49, 8-{[7-(2-amino-1H-imidazo[4,5-b]pyridin-6-yl)-2,3-dihydro-1,4-benzoxazepin-4(5H)-yl]carbonyl}-3-(trifluoromethyl)-8-azabicyclo[3.2.1]octan-3-(endo)-ol]: not above 50 nM and not above 75 nM.
In the same order, the values of `CC(=O)Nc1nc2ccc(-c3ccc4c(c3)CN(C(=O)N3CCC(CF)CC3)CCO4)cc2[nH]1` [Compound 50, N-[5-(4-{[4-(fluoromethyl)piperidin-1-yl]carbonyl}-2,3,4,5-tetrahydro-1,4-benzoxazepin-7-yl)-1H-benzimidazol-2-yl]acetamide] are 250 to 700 nM and 500 to 1000 nM.
For `Cc1nc2cc(-c3ccc4c(c3)CN(C(=O)N3CCC(=O)CC3c3cccc(F)c3)CCO4)cnc2[nH]1` (stereo not drawn) [Compound 51, 2-(3-fluorophenyl)-1-{[7-(2-methyl-3H-imidazo[4,5-b]pyridin-6-yl)-2,3-dihydro-1,4-benzoxazepin-4(5H)-yl]carbonyl}piperidin-4-one], the 50% inhibitory concentration (IC50) in test [1] was in the range of 50 to 250 nM; in test [2], 200 to 500 nM.
